The source of these data is patent US11014898B1, “Benzothiazepine compounds and their use as bile acid modulators” (Albireo AB, priority 2020, dated 2021).

In general, IC50 refers to the concentration that gives 50% inhibition.

For the assay, the target named is T1, Human IBAT (Homo sapiens, UniProt Q12908).
T1 construct: expressed in transfected cells; cells kept under Puromycin selection
T1 sequence (Q12908 1-348): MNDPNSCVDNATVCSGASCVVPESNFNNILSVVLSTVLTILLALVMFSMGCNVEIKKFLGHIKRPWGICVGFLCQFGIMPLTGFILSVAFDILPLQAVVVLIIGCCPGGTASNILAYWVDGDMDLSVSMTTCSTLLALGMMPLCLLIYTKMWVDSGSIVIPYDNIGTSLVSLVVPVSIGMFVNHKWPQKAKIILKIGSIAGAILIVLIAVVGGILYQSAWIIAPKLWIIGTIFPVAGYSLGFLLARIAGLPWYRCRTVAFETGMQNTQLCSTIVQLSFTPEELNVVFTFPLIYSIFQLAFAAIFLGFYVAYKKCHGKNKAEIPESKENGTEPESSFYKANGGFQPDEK
Put plainly: IBAT (h) assay: 3H-taurocholic acid uptake in human IBAT-overexpressing cells. It counts as cell-based. As to conditions: 0.25 μM 3H-taurocholic acid and 5 μM cold taurocholic acid, 20 minutes, read-out: hIBAT IC50. A digest of the protocol:
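IBAT-overexpressing cells, grown 48 h, were exposed 20 min at 37° C to inhibitor (10-point 3-fold series, top 10 μM, 0.2% DMSO) with 0.25 μM 3H-taurocholic acid plus 5 μM cold taurocholate in FBS-free medium. After ice stop and washes with chilled 1 mM taurocholate in HEPES-HBSS pH 7.4, cell-associated radioactivity was scintillation-counted.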

For `CCCCC1(CCCC)CN(c2ccc(Br)cc2)c2cc(SC)c(OCC(=O)O)cc2S(=O)(=O)C1` [Example 3, 2-((5-(4-bromophenyl)-3,3-dibutyl-7-(methylthio)-1,1-dioxido-2,3,4,5-tetrahydro-1,5-benzothiazepin-8-yl)oxy)acetic Acid], the IC50 amounted to 26 nM.
For `CCCCC1(CCCC)CN(c2ccc(O)cc2)c2cc(SC)c(OCC(=O)O)cc2S(=O)(=O)C1` [Example 4, 2-((3,3-dibutyl-5-(4-hydroxyphenyl)-7-(methylthio)-1,1-dioxido-2,3,4,5-tetrahydro-1,5-benzothiazepin-8-yl)oxy)acetic Acid], the concentration for half-maximal inhibition (IC50) is 15 nM.
